Test results from patent publication US6573377B1, “Pyrazole derivatives and salts thereof” (Daiichi Pharmaceuticals Co., Ltd., priority 1998, dated 2003).
In brackets after ≈: the same amount, converted by molar mass. Where a name gives a salt, the structure may show the parent alone. Marks after values point to notes of the source that are not given here. One block for each molecule: values may come before it.

Assays:
[1] = test system: human pulmonary carcinoma strain PC-12; assay: Growth inhibition of PC-12 cells, MTT assay (Test Example 1); assay type: cell-based; conditions: cultured 3 days with sample, absorbance 540 nm; for GI50: Homo sapiens, PC-12, 72 h
Protocol: A human pulmonary carcinoma strain PC-12 which had been subcultured using RPMI 1640 containing 10% fetal calf serum, 2 mM of L-glutamine and 100 μg/ml of kanamycin sulfate was inoculated into a 96 well microplate at an inoculum size of 1.0×1.0^3 cells/150 μl/well, and 50 μl/well of a sample was added 24 hours thereafter. The cells were then cultured for 3 days, and a 5 mg/ml solution of MTT (3-(4,5-dimethylthiazol-2-yl)-2,5-diphenyl-2H-tetrazolium bromide) was dispensed in 20 μl/well portions. Four hours thereafter, the culture medium was discarded, dimethyl sulfoxide was dispensed in 150 μl/well portions and the absorbance was measured at 540 nm. The antitumor effect was shown by GI50 value (ng/ml) as a drug concentration which reduced cell growth of the drug-added group to 50% of the control group.

mice (Balb/c) = assay: Coordination inhibition test, RotaRod (Test Example 2); assay type: in vivo; conditions: oral; for T/C (coordination inhibition positive mice/tested mice) After 1 hour: 1 hour after administration; for T/C (coordination inhibition positive mice/tested mice) After 4 hours: 4 hours after administration
Protocol: Rotation speed of the rotary rod (3 cm in diameter) of RotaRod apparatus (mfd. by Natsume Seisaku-sho) was set to 10 rpm, and mice (Balb/c) which stood on the rod for 60 seconds or more were selected. After 1, 4 or 24 hours of the oral administration of each test sample, these mice were put on the rod, and the mice which dropped within 60 seconds were regarded as coordination inhibition action positive.

[2] = test system: Mouse fibrosarcoma Meth A; assay: Antitumor effect (IR) against subcutaneously transplanted Meth A; assay type: in vivo, mice; conditions: judged on the 17th day

SMILES: Cc1c(/C=C/CN2CCN(c3cc(F)cc(F)c3)CC2)cnn1-c1nc(N)cc(N2CC(O)C2)n1.Cl [Example 21, 1-[1-[4-Amino-6-(3-hydroxy-1-azetidinyl)-2-pyrimidinyl]-5-methyl-4-pyrazolyl]-3-[4-(3,5-difluorophenyl)-1-piperazinyl]-1-trans-propene hydrochloride]
- GI50 [1]: 3.39 ng/mL

SMILES: Cc1c(/C=C/CN2CCN(c3cc(F)cc(F)c3)CC2)cnn1-c1cc(N2CC(N)C2)nc(N)n1.Cl [Example 19, 1-[1-[2-Amino-6-(3-amino-1-azetidinyl)-4-pyrimidinyl]-5-methyl-4-pyrazolyl]-3-[4-(3,5-difluorophenyl)-1-piperazinyl]-1-trans-propene hydrochloride]
- GI50 [1]: 2.35 ng/mL

SMILES: Cc1c(/C=C/CN2CCN3c4cc(F)ccc4CCC3C2)cnn1-c1nccc(N)n1 (single isomer, unassigned; isomer b) [Example 2, 3-[3-[1-(4-amino-2-pyrimidinyl)-5-methyl-4-pyrazolyl]-2-trans-propen-1-yl]-9-fluoro-2,3,4,4a,5,6-hexahydro-1H-pyrazino[1,2-a]quinoline hydrochloride (isomer B)]
- GI50 Value ([1]; listed as Compound of Example 2): 12.1 ng/mL

SMILES: Cc1c(/C=C/CN2CCN(c3cc(F)cc(F)c3)CC2)cnn1-c1cc(NCCN)nc(N)n1.Cl [Example 15, 1-[1-[2-Amino-6-(2-aminoethyl)amino-4-pyrimidinyl]-5-methyl-4-pyrazolyl]-3-[4-(3,5-difluorophenyl)-1-piperazinyl]-1-trans-propene hydrochloride]
- GI50 [1]: 26.6 ng/mL

SMILES: Cc1c(/C=C/CN2CCN(c3cc(F)cc(F)c3)CC2)cnn1-c1nc(N)cc(N2CCC2)n1 [Example 26, 1-[[4-Amino-6-(1-azetidinyl)-2-pyrimidinyl]-5-methyl-4-pyrazolyl]-3-[4-(3,5-difluorophenyl)-1-piperazinyl]-1-trans-propene hydrochloride]
- GI50 [1]: 6.29 ng/mL

SMILES: Cc1c(/C=C/CN2CCN(c3cc(F)cc(F)c3)CC2)cnn1-c1cc(NCCO)nc(N)n1.Cl [Example 11, 1-[1-[2-Amino-6-(2-hydroxyethyl)amino-4-pyrimidinyl]-5-methyl-4-pyrazolyl]-3-[4-(3,5-difluorophenyl)-1-piperazinyl]-1-trans-propene]
- GI50 [1]: 2.49 ng/mL

SMILES: Cc1c(/C=C/CN2CCN3c4ccccc4CC3C2)cnn1-c1nccc(N)n1 (racemic) [Example 4, (+/−)-2-[3-[1-(4-Amino-2-pyrimidinyl)-5-methyl-4-pyrazolyl]-2-trans-propen-1-yl]-1,2,3,4,10,10a-hexahydropyrazino[1,2-a]indole hydrochloride]
- GI50 [1]: 12.1 ng/mL

The next lines start with results.

- GI50 [1]: 0.601 ng/mL
SMILES: Cc1c(/C=C/CN2CCN(c3cc(F)cc(F)c3)CC2)cnn1-c1cc(N2CC(O)C2)nc(N)n1.Cl [Example 13, 1-[1-[2-Amino-6-(3-hydroxy-1-azetidinyl)-4-pyrimidinyl]-5-methyl-4-pyrazolyl]-3-[4-(3,5-difluorophenyl)-1-piperazinyl]-1-trans-propene hydrochloride]
- T/C (coordination inhibition positive mice/tested mice) After 1 hour (mice (Balb/c); dose 5 mg): 0/6
- T/C (coordination inhibition positive mice/tested mice) After 4 hours (mice (Balb/c); dose 5 mg): 0/6
- T/C (coordination inhibition positive mice/tested mice) After 1 hour (mice (Balb/c); dose 10 mg): 0/6
- T/C (coordination inhibition positive mice/tested mice) After 4 hours (mice (Balb/c); dose 10 mg): 0/6
- T/C (coordination inhibition positive mice/tested mice) After 1 hour (mice (Balb/c); dose 12 mg): 1/6
- T/C (coordination inhibition positive mice/tested mice) After 4 hours (mice (Balb/c); dose 12 mg): 2/6
- antitumor effect (IR) ([2]; oral 5 mg × 4 times (d7-10)): 5 mg × 4 times (IR 92%)*

- GI50 [1]: 1.54 ng/mL
SMILES: Cc1c(/C=C/CN2CCN3c4cc(F)cc(F)c4CCC3C2)cnn1-c1cc(N(CCO)CCO)nc(N)n1 (single isomer, unassigned; isomer b) [Example 29, 3-[3-[1-[2-Amino-6-di(2-hydroxyethyl)amino-4-pyrimidinyl]-5-methyl-4-pyrazolyl]-2-trans-propen-1-yl]-7,9-difluoro-2,3,4,4a,5,6-hexahydro-1H-pyrazino[1,2-a]quinoline hydrochloride (isomer B)]

- GI50 Value ([1]; listed as Compound of Example 1): 36.5 ng/mL
SMILES: Cc1c(/C=C/CN2CCN3c4cc(F)ccc4CCC3C2)cnn1-c1nccc(N)n1 (single isomer, unassigned; isomer a) [Example 1, 3-[3-[1-(4-Amino-2-pyrimidinyl)-5-methyl-4-pyrazolyl]-2-trans-propen-1-yl]-9-fluoro-2,3,4,4a,5,6-hexahydro-1H-pyrazino[1,2-a]quinoline hydrochloride (isomer A)]

- GI50 [1]: 1.6 ng/mL
SMILES: Cc1c(/C=C/CN2CCN(c3cc(F)cc(F)c3)CC2)cnn1-c1cc(N(CCO)CCO)nc(N)n1.Cl [Example 12, 1-[1-[2-Amino-6-di(2-hydroxyethyl)amino-4-pyrimidinyl]-5-methyl-4-pyrazolyl]-3-(4-(3,5-difluorophenyl)-1-piperazinyl]-1-trans-propene hydrochloride]

- GI50 [1]: 0.725 ng/mL
SMILES: Cc1c(/C=C/CN2CCN3c4cc(F)cc(F)c4CCC3C2)cnn1-c1cc(N(C)CCO)nc(N)n1.Cl (single isomer, unassigned; isomer b) [Example 28, 3-[3-[1-[2-Amino-6-[N-methyl-N-(2-hydroxyethyl)amino-4-pyrimidinyl]-5-methyl-4-pyrazolyl]-2-trans-propen-1-yl]-7,9-difluoro-2,3,4,4a,5,6-hexahydro-1H-pyrazino[1,2-a]quinoline hydrochloride (isomer B)]

- GI50 Value [1]: 35.5 ng/mL (≈ 0.273 µM)
SMILES: O=c1[nH]cc(F)c(=O)[nH]1 [Example 5-FU, 5-FU, reference compound]

- GI50 [1]: 20.9 ng/mL
SMILES: Cc1c(/C=C/CN2CCN3c4cc(F)ccc4OCC3C2)cnn1-c1nccc(N)n1 (racemic) [Example 3, (+/−)-3-[3-[1-(4-Amino-2-pyrimidinyl)-5-methyl-4-pyrazolyl]-2-trans-propen-1-yl]-9-fluoro-2,3,4,4a,5,6-hexahydro-1H-pyrazino[2,1-c]-1,4-benzoxazine hydrochloride]

- GI50 [1]: 11.3 ng/mL
SMILES: Cc1c(/C=C/CN2CCN(c3cc(F)cc(F)c3)CC2)cnn1-c1cc(N2CC(C)(O)C2)nc(N)n1.Cl [Example 54, 1-[1-[2-Amino-6-(3-hydroxy-3-methyl-1-azetidinyl)-4-pyrimidinyl]-5-methyl-4-pyrazolyl]-3-[4-(3,5-difluorophenyl)-1-piperazinyl]-1-trans-propene hydrochloride]
- T/C (coordination inhibition positive mice/tested mice) After 1 hour (mice (Balb/c); dose 10 mg): 0/6
- T/C (coordination inhibition positive mice/tested mice) After 4 hours (mice (Balb/c); dose 10 mg): 0/6
- T/C (coordination inhibition positive mice/tested mice) After 1 hour (mice (Balb/c); dose 30 mg): 0/6
- T/C (coordination inhibition positive mice/tested mice) After 4 hours (mice (Balb/c); dose 30 mg): 0/6
- antitumor effect (IR) ([2]; oral 10 mg × 4 times (d7-10)): 10 mg × 4 times (IR 89%)*

- GI50 [1]: 9.3 ng/mL
SMILES: Cc1c(/C=C/CN2CCN3c4cc(F)cc(F)c4CCC3C2)cnn1-c1cc(NCCO)nc(N)n1 (stereo not drawn) [Example 27, 3-[3-[1-[2-Amino-6-(2-hydroxyethyl)amino-4-pyrimidinyl]-5-methyl-4-pyrazolyl]-2-trans-propen-1-yl]-7,9-difluoro-2,3,4,4a,5,6-hexahydro-1H-pyrazino[1,2-a]quinoline hydrochloride]
